# Assay results from US20070275960A1, “Phenyl and pyridyl compounds for inflammation and immune-related uses” (Synta Pharmaceuticals Corp., priority 2006, published 2007).
# pIC50: −log10 of the molar value. Counter-ions that a name gives are not always drawn.
# Test system: IL-2 production
# Assay: Inhibition of IL-2 production in PHA-activated Jurkat cells (ELISA)
# Format: cell-based
# Settings: Homo sapiens, Jurkat, 20 h, PHA 2.5 μg/mL, 20 hours at 37° C., IL-2 by ELISA
# Description: Jurkat cells were placed in a 96 well plate (0.5 million cells per well in 1% FBS medium) then a test compound of this invention was added at different concentrations. After 10 minutes, the cells were activated with PHA (final concentration 2.5 μg/mL) and incubated for 20 hours at 37° C. under CO2. The final volume was 200 μL. Following incubation, the cells were centrifuged and the supernatants collected and stored at −70° C. prior to assaying for IL-2 production. A commercial ELISA kit (IL-2 Eli-pair, Diaclone Research, Besancon, France) was used to detect production of IL-2, from which dose response curves were obtained. The IC50 value was calculated as the concentration at which 50% of maximum IL-2 production after stimulation was inhibited versus a non-stimulation control.
row,pIC50,SMILES
1,6.97,"Cc1nc(N2CCOCC2)sc1-c1ccc(NC(=O)c2c(F)cccc2F)cc1 [Compound 9, 2,6-Difluoro-N-[4-(4-methyl-2-morpholin-4-yl-thiazol-5-yl)-phenyl]-benzamide]"
2,< 6.00,"Cc1cc(NC(=O)c2c(F)cccc2F)ccc1-c1nc(C(F)(F)F)cs1 [Compound 91, 2,6-Difluoro-N-[3-methyl-4-(4-trifluoromethyl-thiazole-2-yl)-phenyl]-benzamide]"
3,8.15,"COC(=O)c1cc(-c2ccc(NC(=O)c3c(F)cccc3F)cc2)c(C)o1 [Compound 8, 4-[4-(2,6-Difluoro-benzoylamino)-phenyl]-5-methyl-furan-2-carboxylic acid methyl ester]"
4,7.96,"O=C(Nc1ccc(-c2sc(-c3ccno3)cc2Cl)cc1)c1ccncc1F [Compound 114, 3-Fluoro-N-[4-(3-chloro-5-isoxazol-5-yl-thiophen-2-yl)-phenyl]-isonicotinamide]"
5,7.39,"Cc1cc(-c2cnco2)sc1-c1ccc(NC(=O)Nc2ccncc2F)cc1 [Compound 127, 1-(3-fluoro-pyridin-4-yl)-3-[4-(5-oxazol-5-yl-3-methyl-thiophen-2-yl)-phenyl]-urea]"
6,8.52,"Cc1sc(-c2cnco2)cc1-c1ccc(NC(=O)c2c(F)cccc2F)cc1 [Compound 3, 2,6-Difluoro-N-[4-(2-methyl-5-oxazol-5-yl-thiophen-3-yl)-phenyl]-benzamide]"
7,9.00,"Cc1cc(-c2ncco2)sc1-c1ccc(NC(=O)c2c(F)cccc2F)cc1 [Compound 39, 2,6-Difluoro-N-[4-(3-methyl-5-oxazol-2-yl-thiophen-2-yl)-phenyl]-benzamide]"
8,8.28,"Cc1cc(-c2ccncc2)sc1-c1ccc(NC(=O)c2snnc2C)cc1 [Compound 99, 4-Methyl-[1,2,3]thiadiazole-5-carboxylic acid [4-(3-methyl-5-pyridin-4-yl-thiophen-2-yl)-phenyl]-amide, hydrochloride]"

# More lines, now with the values behind:
row,SMILES,pIC50
1,Cc1cnccc1C(=O)Nc1ccc(-c2sc(-c3ccncc3)cc2C)cc1 [Compound 101],8.40
2,"Cc1cc(-c2cnco2)sc1-c1ccc(NCc2ccncc2F)cc1 [Compound 129, (3-Fluoro-pyridin-4-ylmethyl)-[4-(5-oxazol-5-yl-3-methyl-thiophen-2-yl)-phenyl]-amine]",7.13
3,"Cc1cnccc1C(=O)Nc1ccc(-c2sc(N3CCOCC3)nc2C)cc1 [Compound 10, 3-Methyl-N-[4-(4-methyl-2-morpholin-4-yl-thiazol-5-yl)-phenyl]-isonicotinamide]",6.63
4,"Cc1cc(-c2cncnc2)sc1-c1ccc(NC(=O)c2snnc2C)cc1 [Compound 98, 4-Methyl-[1,2,3]thiadiazole-5-carboxylic acid [4-(3-methyl-5-pyrimidin-5-yl-thiophen-2-yl)-phenyl]-amide]",8.03
5,"Cc1cnccc1C(=O)Nc1ccc(-c2sc(-c3cnco3)cc2Cl)cc1 [Compound 112, 3-Methyl-N-[4-(3-chloro-5-oxazol-5-yl-thiophen-2-yl)-phenyl]-isonicotinamide]",8.17
6,"Cc1cncnc1C(=O)Nc1ccc(-c2sc(-c3ccno3)cc2C)cc1 [Compound 107, 5-Methyl-pyrimidine-4-carboxylic acid [4-(3-methyl-5-isoxazol-5-yl-thiophen-2-yl)-phenyl]-amide]",8.55

# Same assay, conditions: PHA 2.5 μg/mL, 20 hours at 37° C., IL-2 by ELISA
row,SMILES,pIC50
1,"Cc1cnccc1C(=O)Nc1ccc(-c2sc(-c3ncco3)cc2C)cc1 [Compound 109, 3-Methyl-N-[4-(3-methyl-5-oxazol-2-yl-thiophen-2-yl)-phenyl]-isonicotinamide]",8.57

# Same assay, conditions: PHA 2.5 μg/mL, 20 hours at 37° C., IL-2 by ELISA, hydrochloride
row,SMILES,pIC50
1,"Cc1cc(-c2ccccn2)sc1-c1ccc(NC(=O)c2snnc2C)cc1 [Compound 100, 4-Methyl-[1,2,3]thiadiazole-5-carboxylic acid [4-(3-methyl-5-pyridin-2-yl-thiophen-2-yl)-phenyl]-amide, hydrochloride]",7.98
